According to US11413278B2, “Compounds and methods for promoting stress resistance” (priority 2015, dated 2022):
Entries after “also recorded” stand apart in the source; their conditions may differ. Like-named read-outs stand apart in the source and are kept apart here.

Assays:
[1] = test system: human dermal fibroblast (HDF) primary cells; experiment: H2O2-resistance in primary human dermal fibroblasts; format: cell-based; conditions: for fold induction at 10 µM: Homo sapiens; for Assay 6: H2O2-resistant, at 10 uM, human dermal fibroblast (HDF) primary cells: YES/NO
[2] = test system: PC12 cells expressing poly(Q)103-Htt-EGFP; experiment: Poly(Q) toxicity & viability analysis (cellular model of Huntington's disease); format: cell-based, rat; conditions: for M = Huntington's poly-Q toxicity attenuation: score; for K = Huntington's poly-Q toxicity attenuation: summary score
Outline: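 PC12 cells stably carrying inducible poly(Q)103-Htt-EGFP, whose induced expression causes aggregation and toxicity. Viability read 48 hrs later as ATP content by CellTiter-Glo.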

C. elegans = format: in vivo, Caenorhabditis elegans
Description: The worms were treated with the small molecules in liquid, with H2O2 (500 μM final concentration) added on day 4 of adulthood, and scored for viability everyday
FUdR was used to block progeny production. The molecules were analyzed in 96-well plates, with 4 wells for each small molecule. Multiple control wells with DMSO (0.2% final concentration) were included. […] Day 1 adults were transferred onto mini-plates, seeded with OP50 bacteria (UV-irradiated, kanamycin-treated) and supplemented with small molecules (˜60 μM final concentration, 0.2% DMSO). Worms were scored every other day. Cumulative survival was analyzed using the STATA software (log-rank test). […] The worms were treated with the small molecules in liquid, with H2O2 (500 μM final concentration) added on day 4 of adulthood, and scored for viability every day.

[3] = test system: phosphorylated γH2A.X and TP53BP1; experiment: DNA damage marker analysis (immuno-staining); conditions: for activity at 10 µM: Homo sapiens, WI-38, 24 h
Outline: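 WI-38 cells were cultured 24 h, then treated with compounds for 24 h; H2O2 (700 μM, 3 h) and doxorubicin (300 nM, 24 h) served as DNA-damage controls. After fixation, cells were immunostained for phospho-γH2A.X (Ser-139) and phospho-TP53BP1 (Ser-1778), counterstained with DAPI, and imaged by automated high-content microscopy.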

[4] = Experiment 1, HDF cells, read-out: Experiment 1, HDF cells (under H2O2 stress treatment), at 10 uM (fold change)
[5] = Experiment 2, HDF cells, read-out: Experiment 2, HDF cells (under H2O2 stress treatment), at 10 uM (fold change)
[6] = read-out: Experiment 1, H2A.X-P DNA damage foci staining (no H2O2 stress treatment), at 10 uM
[7] = read-out: Experiment 2, H2A.X-P DNA damage foci staining (no H2O2 stress treatment), at 10 uM
[8] = read-out: Experiment 2, H2A.X-P DNA damage foci staining (under H2O2 stress treatment), at 10 uM
[9] = read-out: Experiment 2, TP53BP1-P DNA damage foci staining (no H2O2 stress treatment), at 10 uM
[10] = read-out: Experiment 2, TP53BP1-P DNA damage foci staining (under H2O2 stress treatment), at 10 uM
[11] = Experiment 2, WI-38 cells, 10 μM, 24 hrs, no H2O2, normalized marker-positive fraction, n = 3
[12] = Experiment 2, WI-38 cells, 10 μM, 24 hrs, under H2O2 stress, normalized marker-positive fraction, n = 3

Row | SMILES | fold induction at 10 µM [1, 4] | fold induction at 10 µM [1, 5] | Assay 6: H2O2-resistant, at 10 uM, human dermal fibroblast (HDF) primary cells [1] | M = Huntington's poly-Q toxicity attenuation [2] | K = Huntington's poly-Q toxicity attenuation [2] | H2O2-resistance assay, 1st experiment (C. elegans; in vivo) | L = H2O2-resistance in worms (C. elegans; in vivo) | N = H2O2-resistance in woms (C. elegans; in vivo) | activity at 10 µM [3, 6] [%] | activity at 10 µM [3, 7] [%] | activity at 10 µM [3, 8] [%] | activity at 10 µM [3, 9] [%] | activity at 10 µM [3, 10] [%] | P = Potential DNA-damaging ([3]; human, 24 h) | R = Potential DNA damaging ([3]; human, 24 h) | other results
1 | O=C(NCc1cccnc1)/C(=C\c1ccc(Br)cc1)S(=O)(=O)c1ccccc1 [Gr-7B] | 3.71 | 3.35 | YES | 0 | 0 | YES; | 0 | 0 | 695 | 348 | 74 | 31.3 | 4.2 | 0 | 0 | –
2 | O=C(NCc1cccnc1)/C(=C/c1ccc(-c2ccc(Cl)cc2)o1)S(=O)(=O)c1ccccc1 [Gr-7C] | 0.074 | 8.33 | YES | 1 | 1 | – | 0 | 0 | 132 | 135 | 82.9 | 196 | 369 | 0 | 0 | Viability of PC12 cells upon induction of toxic poly(Q)103-Htt-EGFP aggregates ([2]; 2.5 μM, 5 μM, 10 μM and 20 μM): consistently increased the viability; Assay 20: Huntington's poly-Q toxicity attenuation ([2]; 10 uM, YES/NO): YES
3 | O=C1NCCCc2cc(Cl)sc21 [O1] | 2.95 | 17.8 | YES | 0 | 0 | – | 0 | 0 | 102 | 104 | 216 | 143 | 336 | 0 | 0 | –
4 | CC1C(=O)C(C)C(c2cc(Cl)ccc2O)NC1c1cc(Cl)ccc1O (stereo not shown) [O6] | 285 | 22.2 | YES | 0 | 0 | YES; | 0 | 0 | 122 | 87.7 | 130 | 86.3 | 538 | 0 | 0 | –
5 | O=C(Nc1nc(C23CC4CC(CC(C4)C2)C3)cs1)C(c1ccccc1)c1ccccc1 [O10] | 12.6 | 8.91 | YES | 0 | 0 | – | 0 | 0 | 102 | 71.5 | 153 | 135 | 498 | 0 | 0 | –
6 | COc1cc2c(no[n+]2[O-])n2nnnc12 [O11] | – | – | YES | 0 | 0 | – | – | – | – | – | – | – | – | – | – | Experiment 1, HDF cells (under H2O2 stress treatment), at 10 uM (fold change) ([1]; Experiment 1, HDF cells): 16.57 fold change; Experiment 2, HDF cells (under H2O2 stress treatment), at 10 uM (fold change) ([1]; Experiment 2, HDF cells): 55.68 fold change; H2O2-resistance assay, 1st experiment (C. elegans; 60 μM, in liquid, wild type, with FuDR): YES;; N = H2O2-resistance in woms (C. elegans; score): 0; L = H2O2-resistance in worms (C. elegans; summary score): 0; Percentage of both γH2A.X- and TP53BP1-positive cells (DNA damage markers) ([3]; 10 μM, 24 hrs, absence of H2O2): did not appear to increase both; Experiment 1, H2A.X-P DNA damage foci staining (no H2O2 stress treatment), at 10 uM ([3]; Experiment 1, WI-38 cells, 10 μM, 24 hrs, no H2O2, normalized marker-positive fraction, n = 3): 83.1%,; Experiment 2, H2A.X-P DNA damage foci staining (no H2O2 stress treatment), at 10 uM [3, 11]: 91.2%,; Experiment 2, TP53BP1-P DNA damage foci staining (no H2O2 stress treatment), at 10 uM [3, 11]: 154.0%,; Experiment 2, H2A.X-P DNA damage foci staining (under H2O2 stress treatment), at 10 uM [3, 12]: 151.7%,; Experiment 2, TP53BP1-P DNA damage foci staining (under H2O2 stress treatment), at 10 uM [3, 12]: 560.5%,; R = Potential DNA damaging ([3]; negative point, cultured human cells): 0; P = Potential DNA-damaging ([3]; summary score): 0
7 | CCCC(=O)Nc1ccc(-c2cn3cccc(C)c3n2)cc1 [O12] | 264 | 49.2 | YES | 0 | 0 | YES; | 0 | 0 | 106 | 88 | 113 | 142 | 523 | 0 | 0 | –
8 | O=C(c1ccc([N+](=O)[O-])o1)N1CCc2ccccc21 [O13] | 11.2 | 60.5 | YES | 0 | 0 | YES; | 0 | 0 | 145 | 98.3 | 152 | 238 | 673 | 0 | 0 | –
9 | Oc1ncnc2sc3c(c12)CCC3 [O14] | 2.87 | 4.73 | YES | 0 | 0 | – | 0 | 0 | 116 | 85.3 | 221 | 159 | 254 | 0 | 0 | –
10 | CCCN1C/C(=C\c2ccc(F)cc2)C(=O)/C(=C/c2ccc(F)cc2)C1 [O15] | 0.57 | 1.77 | YES | 0 | 0 | YES; | 1 | 1 | 90 | 184 | 58.4 | 48.3 | 251 | 0 | 0 | H2O2-resistance assay, 2nd experiment (C. elegans; in vivo): YES.; Protection of C. elegans from hydrogen peroxide (C. elegans; in vivo): protected worms from hydrogen peroxide; also recorded: protected C. elegans from hydrogen peroxide; also recorded: could protect C. elegans from hydrogen peroxide
11 | [O-][n+]1onc2c3nsnc3c(Br)cc21 [O17] | 3.35 | 48.5 | YES | 0 | 0 | YES; | 1 | 1 | 96.7 | 72.1 | 129 | 148 | 349 | 0 | 0 | H2O2-resistance assay, 2nd experiment (C. elegans; in vivo): YES.; Protection of C. elegans from hydrogen peroxide (C. elegans; in vivo): could protect C. elegans from hydrogen peroxide
12 | Cc1cc(C)c(C(=O)/C=C/c2ccccc2F)c(O)n1 [O18] | 72.5 | 1.27 | – | 0 | 0 | – | 0 | 0 | 364 | 143 | 137 | 183 | 450 | 0 | 0 | –
